Experimental data taken from US20240158446A1, “CYCLIC COMPOUND HAVING SELECTIVE INHIBITORY ACTION ON KRAS OVER HRAS AND NRAS” (CHUGAI SEIYAKU KABUSHIKI KAISHA, priority 2021, published 2024).
*1 amine or outer side, *2 acyl side, *3 side chain or, on linkers, in order; H or OH if unused. Where a SMILES comes first, the peptide text is derived from it. Bridges are numbered along the chain shown (N, C = ends). [ ]: non-standard residue; d: D form. The star is where a group is joined. hPhe(3-Cl-4-CF3) = N[C@@H](CCc1ccc(C(F)(F)F)c(Cl)c1)C(=O)O; NPrPhe(4-CF3) = CCCN[C@@H](Cc1ccc(C(F)(F)F)cc1)C(=O)O; Pro(4-spirocPr) = O=C(O)[C@@H]1CC2(CC2)CN1; Abu(4,4,4-F3) = N[C@@H](CC(F)(F)F)C(=O)O; NMeGly(cPent) = CN[C@H](C(=O)O)C1CCCC1; X44 = CC1(C)CN([*:1])[C@@H]1C(=O)[*:2]; Hyp = O=C(O)[C@@H]1C[C@@H](O)CN1; Gly(cBu) = N[C@H](C(=O)O)C1CCC1; NMeD = CN[C@@H](CC(=O)O)C(=O)O; NMeL = CN[C@@H](CC(C)C)C(=O)O; X12 = N#CCN(CC(=O)[*:2])[*:1]; hPip = O=C(O)[C@@H]1CCCCCN1; Morpholide = C1CN(*)CCO1; Ac5c = NC1(C(=O)O)CCCC1; Aze = O=C(O)[C@@H]1CCN1; NcPrGly = O=C(O)CNC1CC1; Abu = CC[C@H](N)C(=O)O; NPrGly = CCCNCC(=O)O; NEtG = CCNCC(=O)O; Sar = CNCC(=O)O

What was measured:
[1] = molecular target: GDP-bound KRAS wild-type protein (Homo sapiens, UniProt P01116); test: Binding to KRAS by surface plasmon resonance (SPR), Single Cycle Kinetics; settings: SPR Single Cycle Kinetics, GDP-bound KRAS wild-type protein, 1:1 binding model; read-out: KRAS KD
[2] = molecular target: GDP-bound NRAS wild-type protein (Homo sapiens, UniProt P01111); test: Binding to NRAS by surface plasmon resonance (SPR), Single Cycle Kinetics; settings: SPR, GDP-bound NRAS wild-type protein vs GDP-bound KRAS wild-type protein
[3] = molecular target: GDP-bound HRAS wild-type protein (Homo sapiens, UniProt P01112); test: Binding to HRAS by surface plasmon resonance (SPR), Single Cycle Kinetics; settings: SPR, GDP-bound HRAS wild-type protein vs GDP-bound KRAS wild-type protein
Chain of GDP-bound HRAS wild-type protein (P01112 whole entry): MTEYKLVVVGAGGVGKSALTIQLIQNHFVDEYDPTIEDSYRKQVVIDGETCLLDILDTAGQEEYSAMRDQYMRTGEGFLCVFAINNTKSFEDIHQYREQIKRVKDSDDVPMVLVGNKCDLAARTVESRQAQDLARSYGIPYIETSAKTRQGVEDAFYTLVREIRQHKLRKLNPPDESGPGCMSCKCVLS

Chain of GDP-bound NRAS wild-type protein (P01111 whole entry): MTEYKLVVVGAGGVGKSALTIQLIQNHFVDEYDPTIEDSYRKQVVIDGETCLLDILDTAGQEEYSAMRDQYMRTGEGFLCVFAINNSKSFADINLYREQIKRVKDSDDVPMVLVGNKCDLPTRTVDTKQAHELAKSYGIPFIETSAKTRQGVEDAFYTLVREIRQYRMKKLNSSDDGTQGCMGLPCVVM
Chain of GDP-bound KRAS wild-type protein (P01116 whole entry): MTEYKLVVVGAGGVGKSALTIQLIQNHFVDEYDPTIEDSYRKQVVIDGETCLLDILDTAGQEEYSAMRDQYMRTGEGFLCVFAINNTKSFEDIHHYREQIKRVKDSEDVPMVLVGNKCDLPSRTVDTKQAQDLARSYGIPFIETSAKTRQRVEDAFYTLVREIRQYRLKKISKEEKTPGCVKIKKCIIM

SMILES | Kd [1] | NRAS/KRAS (ratio of KD value for NRAS to KD value for KRAS) [2] | HRAS/KRAS (ratio of KD value for HRAS to KD value for KRAS) [3]
CCCN1C(=O)CN(C)C(=O)CN(C)C(=O)[C@H]([C@@H](C)CC)NC(=O)[C@@H]2CCCCCN2C(=O)C[C@@H](C(=O)N2CCOCC2)N(C)C(=O)[C@H](C2CCCC2)N(C)C(=O)C2(CCCC2)NC(=O)[C@@H]2CCCN2C(=O)[C@H](CCc2ccc(C(F)(F)F)c(Cl)c2)NC(=O)CN(C)C(=O)[C@@H]1Cc1ccc(C(F)(F)F)cc1 [PP0247] ([hPip]I[Sar][Sar][NPrPhe(4-CF3)][Sar][hPhe(3-Cl-4-CF3)]P[Ac5c][NMeGly(cPent)][NMeD]-Morpholide; lactam N-11) | 0.38 nM | B (a compound having 3 or more and less than 10 is denoted as B) | C (A compound having a KD ratio of 0.1 or more and less than 3 is denoted as C)
CCCN1C(=O)CN(C)C(=O)CN(C)C(=O)[C@H](CC)NC(=O)[C@H](CC(C)C)N(C)C(=O)C[C@@H](C(=O)N2CCOCC2)N(C)C(=O)[C@H](C2CCCC2)N(C)C(=O)C2(CCCC2)NC(=O)[C@@H]2CCCN2C(=O)[C@H](CCc2ccc(C(F)(F)F)c(Cl)c2)NC(=O)CN(C)C(=O)[C@@H]1Cc1ccc(C(F)(F)F)cc1 [PP0248] ([NMeL][Abu][Sar][Sar][NPrPhe(4-CF3)][Sar][hPhe(3-Cl-4-CF3)]P[Ac5c][NMeGly(cPent)][NMeD]-Morpholide; lactam N-11) | 1.1 nM | B (a compound having 3 or more and less than 10 is denoted as B) | B (a compound having 3 or more and less than 10 is denoted as B)
CCCN1C(=O)CN(C)C(=O)CN(C)C(=O)[C@H](CC(F)(F)F)NC(=O)[C@H](CC(C)C)N(C)C(=O)C[C@@H](C(=O)N2CCOCC2)N(C)C(=O)[C@H](C2CCCC2)N(C)C(=O)C2(CCCC2)NC(=O)[C@@H]2CCCN2C(=O)[C@H](CCc2ccc(C(F)(F)F)c(Cl)c2)NC(=O)CN(C)C(=O)[C@@H]1Cc1ccc(C(F)(F)F)cc1 [PP0249] ([NMeL][Abu(4,4,4-F3)][Sar][Sar][NPrPhe(4-CF3)][Sar][hPhe(3-Cl-4-CF3)]P[Ac5c][NMeGly(cPent)][NMeD]-Morpholide; lactam N-11) | 0.69 nM | B (a compound having 3 or more and less than 10 is denoted as B) | C (A compound having a KD ratio of 0.1 or more and less than 3 is denoted as C)
CCCN1C(=O)CN(C)C(=O)CN(C)C(=O)[C@H](C2CCC2)NC(=O)[C@H](CC(C)C)N(C)C(=O)C[C@@H](C(=O)N2CCOCC2)N(C)C(=O)[C@H](C2CCCC2)N(C)C(=O)C2(CCCC2)NC(=O)[C@@H]2CCCN2C(=O)[C@H](CCc2ccc(C(F)(F)F)c(Cl)c2)NC(=O)CN(C)C(=O)[C@@H]1Cc1ccc(C(F)(F)F)cc1 [PP0250] ([NMeL][Gly(cBu)][Sar][Sar][NPrPhe(4-CF3)][Sar][hPhe(3-Cl-4-CF3)]P[Ac5c][NMeGly(cPent)][NMeD]-Morpholide; lactam N-11) | 0.12 nM | B (a compound having 3 or more and less than 10 is denoted as B) | C (A compound having a KD ratio of 0.1 or more and less than 3 is denoted as C)
CCCN1C(=O)CN(C)C(=O)CN(C2CC2)C(=O)[C@H]([C@@H](C)CC)NC(=O)[C@H](CC(C)C)N(C)C(=O)C[C@@H](C(=O)N2CCOCC2)N(C)C(=O)[C@H](C2CCCC2)N(C)C(=O)C2(CCCC2)NC(=O)[C@@H]2CCCN2C(=O)[C@H](CCc2ccc(C(F)(F)F)c(Cl)c2)NC(=O)CN(C)C(=O)[C@@H]1Cc1ccc(C(F)(F)F)cc1 [PP0252] ([NMeL]I[NcPrGly][Sar][NPrPhe(4-CF3)][Sar][hPhe(3-Cl-4-CF3)]P[Ac5c][NMeGly(cPent)][NMeD]-Morpholide; lactam N-11) | 0.34 nM | B (a compound having 3 or more and less than 10 is denoted as B) | B (a compound having 3 or more and less than 10 is denoted as B)
CCCN1C(=O)CN(C)C(=O)CN(CC#N)C(=O)[C@H]([C@@H](C)CC)NC(=O)[C@H](CC(C)C)N(C)C(=O)C[C@@H](C(=O)N2CCOCC2)N(C)C(=O)[C@H](C2CCCC2)N(C)C(=O)C2(CCCC2)NC(=O)[C@@H]2CCCN2C(=O)[C@H](CCc2ccc(C(F)(F)F)c(Cl)c2)NC(=O)CN(C)C(=O)[C@@H]1Cc1ccc(C(F)(F)F)cc1 [PP0254] ([NMeL]I[X12][Sar][NPrPhe(4-CF3)][Sar][hPhe(3-Cl-4-CF3)]P[Ac5c][NMeGly(cPent)][NMeD]-Morpholide; lactam N-11) | 0.16 nM | B (a compound having 3 or more and less than 10 is denoted as B) | C (A compound having a KD ratio of 0.1 or more and less than 3 is denoted as C)
CCCN1C(=O)CN(C)C(=O)[C@H]2N(CC2(C)C)C(=O)[C@H]([C@@H](C)CC)NC(=O)[C@H](CC(C)C)N(C)C(=O)C[C@@H](C(=O)N2CCOCC2)N(C)C(=O)[C@H](C2CCCC2)N(C)C(=O)C2(CCCC2)NC(=O)[C@@H]2CCCN2C(=O)[C@H](CCc2ccc(C(F)(F)F)c(Cl)c2)NC(=O)CN(C)C(=O)[C@@H]1Cc1ccc(C(F)(F)F)cc1 [PP0256] ([NMeL]I[X44][Sar][NPrPhe(4-CF3)][Sar][hPhe(3-Cl-4-CF3)]P[Ac5c][NMeGly(cPent)][NMeD]-Morpholide; lactam N-11) | 0.99 nM | B (a compound having 3 or more and less than 10 is denoted as B) | C (A compound having a KD ratio of 0.1 or more and less than 3 is denoted as C)
CCCN1C(=O)[C@@H]2CCN2C(=O)CN(CC)C(=O)[C@H]([C@@H](C)CC)NC(=O)[C@H](CC(C)C)N(C)C(=O)C[C@@H](C(=O)N2CCOCC2)N(C)C(=O)[C@H](C2CCCC2)N(C)C(=O)C2(CCCC2)NC(=O)[C@@H]2CCCN2C(=O)[C@H](CCc2ccc(C(F)(F)F)c(Cl)c2)NC(=O)CN(C)C(=O)[C@@H]1Cc1ccc(C(F)(F)F)cc1 [PP0259] ([NMeL]I[NEtG][Aze][NPrPhe(4-CF3)][Sar][hPhe(3-Cl-4-CF3)]P[Ac5c][NMeGly(cPent)][NMeD]-Morpholide; lactam N-11) | 0.42 nM | C (A compound having a KD ratio of 0.1 or more and less than 3 is denoted as C) | B (a compound having 3 or more and less than 10 is denoted as B)

The next lines start with results.

Kd [1] | SMILES | NRAS/KRAS (ratio of KD value for NRAS to KD value for KRAS) [2] | HRAS/KRAS (ratio of KD value for HRAS to KD value for KRAS) [3]
0.55 nM | CCCN1CC(=O)N(C)CC(=O)N(CCC)[C@@H](Cc2ccc(C(F)(F)F)cc2)C(=O)N(C)CC(=O)N[C@@H](CCc2ccc(C(F)(F)F)c(Cl)c2)C(=O)N2CCC[C@H]2C(=O)NC2(CCCC2)C(=O)N(C)[C@@H](C2CCCC2)C(=O)N(C)[C@H](C(=O)N2CCOCC2)CC(=O)N(C)[C@@H](CC(C)C)C(=O)N[C@@H]([C@@H](C)CC)C1=O [PP0253] ([NMeL]I[NPrGly][Sar][NPrPhe(4-CF3)][Sar][hPhe(3-Cl-4-CF3)]P[Ac5c][NMeGly(cPent)][NMeD]-Morpholide; lactam N-11) | B (a compound having 3 or more and less than 10 is denoted as B) | B (a compound having 3 or more and less than 10 is denoted as B)
0.39 nM | CCCN1C(=O)CN(C)C(=O)CN(C)C(=O)[C@H]([C@@H](C)CC)NC(=O)[C@H](CC(C)C)N(C)C(=O)C[C@@H](C(=O)N2CCOCC2)N(C)C(=O)[C@H](C2CCCC2)N(C)C(=O)C2(CCCC2)NC(=O)[C@@H]2CCN2C(=O)[C@H](CCc2ccc(C(F)(F)F)c(Cl)c2)NC(=O)CN(C)C(=O)[C@@H]1Cc1ccc(C(F)(F)F)cc1 [PP0260] ([NMeL]I[Sar][Sar][NPrPhe(4-CF3)][Sar][hPhe(3-Cl-4-CF3)][Aze][Ac5c][NMeGly(cPent)][NMeD]-Morpholide; lactam N-11) | B (a compound having 3 or more and less than 10 is denoted as B) | C (A compound having a KD ratio of 0.1 or more and less than 3 is denoted as C)
0.14 nM | CCCN1C(=O)CN(C)C(=O)CN(C)C(=O)[C@H]([C@@H](C)CC)NC(=O)[C@H](CC(C)C)N(C)C(=O)C[C@@H](C(=O)N2CCOCC2)N(C)C(=O)[C@H](C2CCCC2)N(C)C(=O)C2(CCCC2)NC(=O)[C@@H]2CC3(CC3)CN2C(=O)[C@H](CCc2ccc(C(F)(F)F)c(Cl)c2)NC(=O)CN(C)C(=O)[C@@H]1Cc1ccc(C(F)(F)F)cc1 [PP0261] ([NMeL]I[Sar][Sar][NPrPhe(4-CF3)][Sar][hPhe(3-Cl-4-CF3)][Pro(4-spirocPr)][Ac5c][NMeGly(cPent)][NMeD]-Morpholide; lactam N-11) | B (a compound having 3 or more and less than 10 is denoted as B) | C (A compound having a KD ratio of 0.1 or more and less than 3 is denoted as C)
0.044 nM | CCCN1C(=O)CN(C)C(=O)CN(C)C(=O)[C@H]([C@@H](C)CC)NC(=O)[C@H](CC(C)C)N(C)C(=O)C[C@@H](C(=O)N2CCOCC2)N(C)C(=O)[C@H](C2CCCC2)N(C)C(=O)C2(CCCC2)NC(=O)[C@@H]2C[C@@H](OC)CN2C(=O)[C@H](CCc2ccc(C(F)(F)F)c(Cl)c2)NC(=O)CN(C)C(=O)[C@@H]1Cc1ccc(C(F)(F)F)cc1 [PP0262] ([NMeL]I[Sar][Sar][NPrPhe(4-CF3)][Sar][hPhe(3-Cl-4-CF3)][Hyp](Me)[Ac5c][NMeGly(cPent)][NMeD]-Morpholide; lactam N-11) | B (a compound having 3 or more and less than 10 is denoted as B) | B (a compound having 3 or more and less than 10 is denoted as B)
